Assay results taken from publication PMC6832239, “The Effects of a Novel Series of KTTKS Analogues on Cytotoxicity and Proteolytic Activity” (Molecules, 2019).
Where two headings read alike, the source gives them in different places.

What was measured:
thrombin = target: T1, thrombin (Bos taurus, UniProt P00735); assay: Amidolytic activity of thrombin (chromogenic substrate H-D-Phe-Pip-Arg-pNA); type: biochemical
T1 construct: purchased Lubelska Wytwórnia Szczepionek (Lublin, Poland)
Method: The determination of amidolytic activity was performed as previously described by Okada. A detailed description of the method is given below: 0.2 mL of the examined peptides (0.15 M NaCl as contro), a buffer, and 0.1 mL of enzyme solution were mixed. The final peptide concentrations were: 0.2 mM, 2 mM, and 20 mM. The mixture was incubated at 37 °C for 3 min; then the synthetic substrate solution was added in the same buffer. […] The mean values from three independent experiments done in duplicate are presented. A method error of 5% was adopted as statistical error. […] IC50 was calculated mathematically by extrapolation using a linear plot.

[1] = Viability of fibroblast cells, MTT assay; type: cell-based, Human; settings: human, primary dermal fibroblast cells
Method: Viability of fibroblast cells was examined with the use of the MTT assay. MTT, a yellow tetrazole, is reduced to purple formazan only in living cells. Absorbance of the coloured solution was measured by a spectrophotometer.
These studies were performed on primary dermal fibroblasts cells. The cells were maintained in DMEM supplemented with 10% fetal bovine serum (FBS), 2 mM glutamin, 50 U/mL penicillin and […] streptomycin at 37 °C in a 5% CO2 incubator. For experiments, cells cultures were plated at a density of 1 × 10^6/well in six-well culture plates (Costar, St. Louis, MO, USA) in 2 mL of growth medium. Cells reached about 80% of confluency at day 2 were used for the assays.
Toxicity of the tested substances was determined using an MTT [3-(4,5-dimethylthiazol-2-yl)-2,5-diphenyltetrazolium bromide)] assay. Palmitoyl and lipoyl peptides were dissolved in DMSO (dimethyl sulfoxide), the other peptides in DMEM, and added to the cell culture medium. Simultaneously, the same concentrations of DMSO without peptides were added to cells, serving as controls. The final peptide concentrations were: 1 μM, 10 μM, and 100 μM. After 24 h incubation, the cells cultured with the tested compounds were washed with phosphate-buffered saline (PBS) and then incubated for 4 h in 2 mL of MTT solution (5 mg/mL). After removing the medium, the cells were lysed in 200 μL of DMSO with 20 μL of Sorensen’s buffer (pH 10.5, 0.1 mol/L glycine with 0.1 mol/L NaCl). The absorbance of converted dye in living cells was measured at a wavelength of 570 nm. The mean values ± SD from three independent experiments done in duplicate are presented.

plasmin = target: T2, plasmin (Homo sapiens, UniProt P00747); assay: Amidolytic activity of plasmin (chromogenic substrate H-D-Val-Leu-Lys-pNA); type: biochemical; settings: amidolytic activity; Tris pH 7.4, 37 °C; IC50 by extrapolation using a linear plot; error 5%; read-out: IC50 Plasmin
T2 construct: purchased Chromogenix (Milano, Italy)
Method: (§1) The determination of amidolytic activity was performed as previously described by Okada. A detailed description of the method is given below: 0.2 mL of the examined peptides (0.15 M NaCl as contro), a buffer, and 0.1 mL of enzyme solution were mixed. The final peptide concentrations were: 0.2 mM, 2 mM, and 20 mM. The mixture was incubated at 37 °C for 3 min; then the synthetic substrate solution was added in the same buffer. After 20 min of incubation, the reaction was stopped by adding 0.1 mL of 50% acetic acid and the absorbance of the released p-nitroaniline was measured at 405 nm. The mean values from three independent experiments done in duplicate are presented. A method error of 5% was adopted as statistical error. IC50 value was considered as the concentration of inhibitor that reduces absorbance by 50%, compared with absorbance measured under the same conditions without an inhibitor. IC50 was calculated mathematically by extrapolation using a linear plot. IC50 values are presented in Table 1 and Table 2, and graphically in Figure 1.
(§2) The buffers and the enzyme solutions included: • Tris buffer—0.6 mL (pH 8.8), enzyme: urokinase (50 units/mL), synthetic substrate: pyro-Glu-Gly-Arg-pNA·HCl (0.1 mL, 3 mM); • Tris buffer—0.5 mL (pH 8.4), enzyme: thrombin (1 units/mL), synthetic substrate: H-D-Phe-Pip-Arg-pNA (0.2 mL, 0.75 mM); • Tris buffer—0.5 mL (pH 7.4), enzyme: plasmin (0.4 units/mL), synthetic substrate: H-D-Val-Leu-Lys-pNA (0.2 mL, 3 mM); • Borate buffer—0.5 mL (pH 7.5), enzyme: trypsin (0.4 units/mL), synthetic substrate: Bzl-L-Arg-pNA·HCl (0.2 mL, 8 mM); • Tris buffer—0.6 mL (pH 9.0), enzyme: kallikrein (3 units/mL), synthetic substrate: H-D-Val-Leu-Arg-pNA·2HCl (0.1 mL, 75 mM); • Tris buffer—0.6 mL (pH 8.4), enzyme: t-PA ([…]), synthetic substrate: H-D-Ile-Pro-Arg-pNA (0.1 mL, 10 mM) • Tris buffer—0.6 mL (pH 9.0), enzyme: chymotrypsin (0.4 units/mL), synthetic substrate: Suc-Phe-pNA (0.2 mL, 8 mM)

urokinase = target: T3, urokinase (Homo sapiens, UniProt P00749); assay: Amidolytic activity of urokinase (chromogenic substrate pyro-Glu-Gly-Arg-pNA); type: biochemical; settings: amidolytic activity; Tris pH 8.8, 37 °C; IC50 by extrapolation using a linear plot; error 5%; read-out: IC50 Urokinase
T3 construct: purchased Sigma (Schnelldorf, Germany)
Method: as §1, §2

[2] = amidolytic activity, Tris pH 8.4, 37 °C, IC50 by extrapolation using a linear plot, error 5%, read-out: IC50 Thrombin
[3] = 1 µmol/L, 24 h, MTT, ± 2, read-out: Viability of fibroblast cells
[4] = 10 µmol/L, 24 h, MTT, ± 2, read-out: Viability of fibroblast cells
[5] = 100 µmol/L, 24 h, MTT, ± 2, read-out: Viability of fibroblast cells

T2 sequence (P00747 581-810 limits assumed): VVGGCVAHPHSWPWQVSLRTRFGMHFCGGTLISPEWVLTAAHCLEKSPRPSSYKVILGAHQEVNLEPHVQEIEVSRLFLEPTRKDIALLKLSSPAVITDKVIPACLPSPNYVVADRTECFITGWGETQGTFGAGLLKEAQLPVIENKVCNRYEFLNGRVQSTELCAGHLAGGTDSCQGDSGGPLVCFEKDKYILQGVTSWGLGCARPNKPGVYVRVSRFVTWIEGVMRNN
T2 sequence (P00747 97-580 partner limits assumed): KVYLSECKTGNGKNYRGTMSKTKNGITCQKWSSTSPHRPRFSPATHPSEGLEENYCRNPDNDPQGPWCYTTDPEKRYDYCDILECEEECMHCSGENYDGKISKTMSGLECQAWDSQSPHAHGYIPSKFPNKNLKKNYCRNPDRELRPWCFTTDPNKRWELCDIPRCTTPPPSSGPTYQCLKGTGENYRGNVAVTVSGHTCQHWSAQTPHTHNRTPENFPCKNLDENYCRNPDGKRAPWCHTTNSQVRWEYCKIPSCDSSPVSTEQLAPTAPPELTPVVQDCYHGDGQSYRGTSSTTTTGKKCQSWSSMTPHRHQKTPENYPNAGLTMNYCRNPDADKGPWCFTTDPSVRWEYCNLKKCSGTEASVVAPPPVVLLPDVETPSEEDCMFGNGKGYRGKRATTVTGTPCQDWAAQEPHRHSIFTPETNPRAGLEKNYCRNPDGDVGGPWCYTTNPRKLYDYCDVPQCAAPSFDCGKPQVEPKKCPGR

SMILES | IC50 (thrombin; [2]) | viability at 24 h, 1 µmol/L [1, 3] | viability at 24 h, 10 µmol/L [1, 4] | viability at 24 h, 100 µmol/L [1, 5] | IC50 (plasmin) | IC50 (urokinase) | IC50 (thrombin) | viability at 24 h, 1 µmol/L [1] | viability at 24 h, 10 µmol/L [1] | viability at 24 h, 100 µmol/L [1] | IC50 (thrombin; converted from IC50 of Table 1, read-out: -logIC50 Thrombin (converted))
C[C@@H](O)[C@H](NC(=O)[C@H](CCCCN)NC(=O)CCCCC1CCSS1)C(=O)N[C@H](C(=O)N[C@@H](CCCCN)C(=O)N[C@@H](CO)C(N)=O)[C@@H](C)O (mixture of isomers) [Peptide 7, Lip-Lys-Thr-Thr-Lys-Ser-NH2] | 11.7 ± 0.58 mM | 97% | 89% | 87% | 0.58 ± 0.029 mM | 15.1 ± 0.75 mM |  |  |  |  | 
C[C@@H](O)[C@H](NC(=O)[C@H](CCCCN)NC(=O)CCCCC1CCSS1)C(=O)N[C@H](C(=O)N[C@@H](CCCNC(=N)N)C(=O)N[C@@H](CO)C(=O)O)[C@@H](C)O (mixture of isomers) [Peptide 11, Lip-Lys-Thr-Thr-Arg-Ser-OH] | 10.9 ± 0.54 mM | 102% | 105% | 98% | 0.24 ± 0.012 mM |  |  |  |  |  | 
C[C@@H](O)[C@H](NC(=O)[C@H](CCCCN)NC(=O)CCCCC1CCSS1)C(=O)N[C@H](C(=O)N[C@@H](CCCNC(=N)N)C(=O)N[C@@H](CO)C(N)=O)[C@@H](C)O (mixture of isomers) [Peptide 15, Lip-Lys-Thr-Thr-Arg-Ser-NH2] |  |  |  |  | 0.69 ± 0.035 mM | 3.47 ± 0.17 mM | 4.11 ± 0.21 mM | 112% | 122% | 115% | 
C[C@@H](O)[C@H](NC(=O)[C@H](CCCNC(=N)N)NC(=O)CCCCC1CCSS1)C(=O)N[C@H](C(=O)N[C@@H](CCCNC(=N)N)C(=O)N[C@@H](CO)C(=O)O)[C@@H](C)O (mixture of isomers) [Peptide 19, Lip-Arg-Thr-Thr-Arg-Ser-OH] | 1.84 ± 0.092 mM | 79% | 81% | 90% | 1.01 ± 0.051 mM |  |  |  |  |  | 
C[C@@H](O)[C@H](NC(=O)[C@H](CCCNC(=N)N)NC(=O)CCCCC1CCSS1)C(=O)N[C@H](C(=O)N[C@@H](CCCNC(=N)N)C(=O)N[C@@H](CO)C(N)=O)[C@@H](C)O (mixture of isomers) [Peptide 23, Lip-Arg-Thr-Thr-Arg-Ser-NH2] | 2.36 ± 0.12 mM | 89% | 79% | 88% | 1.89 ± 0.094 mM | 4.67 ± 0.23 mM |  |  |  |  | 
C[C@@H](O)[C@H](NC(=O)[C@H](CCCNC(=N)N)NC(=O)CCCCC1CCSS1)C(=O)N[C@H](C(=O)N[C@@H](CCCCN)C(=O)N[C@@H](CO)C(=O)O)[C@@H](C)O (mixture of isomers) [Peptide 27, Lip-Arg-Thr-Thr-Lys-Ser-OH] |  | 105% | 91% | 80% | 2.12 ± 0.11 mM |  |  |  |  |  | 4.27 mM
C[C@@H](O)[C@H](NC(=O)[C@H](CCCNC(=N)N)NC(=O)CCCCC1CCSS1)C(=O)N[C@H](C(=O)N[C@@H](CCCCN)C(=O)N[C@@H](CO)C(N)=O)[C@@H](C)O (mixture of isomers) [Peptide 31, Lip-Arg-Thr-Thr-Lys-Ser- NH2] | 5.59 ± 0.28 mM | 107% | 112% | 117% | 3.23 ± 0.16 mM | 4.57 ± 0.23 mM |  |  |  |  | 
